In PubChem BioAssay AID256 (DTP/NCI, 2004) one finds T/C data, which are given here for 24 molecules.

The test relates to CD2F1 mice, L1210 leukemia ip, survival T/C. The test is described as follows: NCI In Vivo Anticancer Drug Screen. Data for tumor model L1210 Leukemia (intraperitoneal) in CD2F1 (CDF1) mice. The following applies: endpoint: mean survival time, higher = longer survival. The method in brief: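 Mice carrying a transplanted tumor received test compound or vehicle alone. The value is the measurement in the treated group divided by that in the vehicle-treated control group.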

[1] abbreviates: dose: 100.0 mg/kg/injection, schedule: Q01DX009 (ip), vehicle: saline with Tween-80.
Setting [2] is: dose: 200.0 mg/kg/injection, schedule: Q01DX009 (ip), vehicle: saline with Tween-80.
Setting [3] is: dose: 12.5 mg/kg/injection, schedule: Q01DX009 (ip), vehicle: saline with Tween-80.
Setting [4] is: dose: 25.0 mg/kg/injection, schedule: Q01DX009 (ip), vehicle: saline with Tween-80.
The mark [5] stands for this setting: dose: 50.0 mg/kg/injection, schedule: Q01DX009 (ip), vehicle: saline with Tween-80.
[6] abbreviates: dose: 100.0 mg/kg/injection, schedule: Q04DX003 (ip), vehicle: saline with Tween-80.
Setting [7] is: dose: 200.0 mg/kg/injection, schedule: Q04DX003 (ip), vehicle: saline with Tween-80.
Setting [8] is: dose: 400.0 mg/kg/injection, schedule: Q04DX003 (ip), vehicle: saline with Tween-80.
[9] abbreviates: dose: 100.0 mg/kg/injection, schedule: Q04DX003 (ip), vehicle: saline.
Where [10] appears, read: dose: 200.0 mg/kg/injection, schedule: Q04DX003 (ip), vehicle: saline.
Setting [11] is: dose: 400.0 mg/kg/injection, schedule: Q04DX003 (ip), vehicle: saline.
Where [12] appears, read: dose: 100.0 mg/kg/injection, schedule: Q01DX001 (ip), vehicle: saline.
[13] abbreviates: dose: 75.0 mg/kg/injection, schedule: Q01DX001 (ip), vehicle: saline.

Molecules are shown by their SMILES. “And” between values parts separate entries of the source, which are not always exact repeats. Equal values may be shown once. Inconclusive results and toxic doses are left out.

Consider `CCOC(=O)CCC(NC(=O)c1cc(Cl)c(N(CC)Cc2cnc3nc(N)nc(N)c3n2)c(Cl)c1)C(=O)OCC` (configuration not stated), for which the T/C (dose: 25.0 mg/kg/injection, schedule: Q01DX009 (ip), vehicle: Klucel (hydroxypropylcellulose) (HPC)) was 170 % of control.

`C/C(CC(C)C)=N\NC(=O)CNC(=O)c1ccccc1`: the T/C was 90 % of control under setting [1]; 92 % of control under setting [2]; 96 % of control (dose: 400.0 mg/kg/injection, schedule: Q01DX009 (ip), vehicle: saline with Tween-80).

Regarding `C(COCCOCC1CO1)OCCOCC1CO1` (configuration not stated), the T/C is 104 % of control under setting [3]; 108 % of control under setting [4]; 104 % of control under setting [5]; 106 % of control under setting [1]; 104 % of control under setting [2].

Consider `CC(C)(C)CC(C)(C)c1ccc(OCCOc2ccc(NS(=O)(=O)c3ccc(N)cc3)cc2)cc1`, for which the T/C was 95 % of control (dose: 100.0 mg/kg/injection, schedule: Q01DX009 (ip), vehicle: Klucel (hydroxypropylcellulose) (HPC)); 97 % of control under setting [6]; 96 % of control (dose: 200.0 mg/kg/injection, schedule: Q01DX009 (ip), vehicle: Klucel (hydroxypropylcellulose) (HPC)); 97 % of control under setting [7]; 93 % of control (dose: 400.0 mg/kg/injection, schedule: Q01DX009 (ip), vehicle: Klucel (hydroxypropylcellulose) (HPC)); 95 % of control under setting [8].

For the molecule `COC1OC2COCOC2C(OS(=O)(=O)c2ccc(C)cc2)C1OS(=O)(=O)c1ccc(C)cc1` (configuration not stated), the T/C under setting [5] is 103 % of control, the T/C under setting [1] was 97 % of control and the T/C under setting [2] was 97 % of control.

Turning to `CC(C)(C)C1CCC(OC(=O)C(=O)O)CC1` (configuration not stated), the T/C reads like this: (dose: 100.0 mg/kg/injection, schedule: Q01DX001 (ip), vehicle: saline with Tween-80) 100 % of control; under setting [1], 104 % of control; (dose: 200.0 mg/kg/injection, schedule: Q01DX001 (ip), vehicle: saline with Tween-80) 97 % of control; under setting [2], 87 % of control; (dose: 400.0 mg/kg/injection, schedule: Q01DX001 (ip), vehicle: saline with Tween-80) 95 % of control.

As to `CCN(CC)CCCNC(C)=O`, the T/C is 98 % of control under setting [9], 96 % of control under setting [10] and 101 % of control under setting [11].

Turning to `CN=S(=O)(OCCCCCOS(=O)(=NC)c1ccccc1)c1ccccc1` (configuration not stated), the T/C by setting is: under setting [3], 103 % of control; under setting [4], 106 % of control; under setting [5], 103 % of control; under setting [1], 106 % of control.

`COc1ccccc1N1CCCSC1=Nc1ccccc1`: the T/C is, setting by setting: (dose: 100.0 mg/kg/injection, schedule: Q04DX002 (ip), vehicle: saline) 98 % of control; (dose: 200.0 mg/kg/injection, schedule: Q04DX002 (ip), vehicle: saline) 94 % of control.

For the molecule `COc1ccc(NC(=O)Oc2cc(C(C)C)ccc2C)cc1`, the T/C is 98 % of control (dose: 100.0 mg/kg/injection, schedule: Q04DX002 (ip), vehicle: saline with Tween-80); 98 % of control (dose: 200.0 mg/kg/injection, schedule: Q04DX002 (ip), vehicle: saline with Tween-80); 94 % of control (dose: 400.0 mg/kg/injection, schedule: Q04DX002 (ip), vehicle: saline with Tween-80).

On to `OCC(O)COCC#Cc1ccccc1` (configuration not stated), for which the T/C (dose: 25.0 mg/kg/injection, schedule: Q01DX009 (ip), vehicle: water) was 97 % of control; the T/C (dose: 50.0 mg/kg/injection, schedule: Q01DX009 (ip), vehicle: water) was 92 % of control; the T/C (dose: 100.0 mg/kg/injection, schedule: Q01DX009 (ip), vehicle: water) is 101 % of control; the T/C (dose: 200.0 mg/kg/injection, schedule: Q01DX009 (ip), vehicle: water) is 101 % of control.

Consider `CN(C)C1C(c2ccccc2)S(=O)(=O)C1(C)C` (configuration not stated), for which the T/C was 100 % of control under setting [12]; 96 % of control under setting [9]; 100 % of control (dose: 200.0 mg/kg/injection, schedule: Q01DX001 (ip), vehicle: saline); 101 % of control under setting [10]; 100 % of control (dose: 400.0 mg/kg/injection, schedule: Q01DX001 (ip), vehicle: saline); 97 % of control under setting [11].

As to `CC(O)(C(=O)O)c1ccccc1` (configuration not stated), the T/C is, setting by setting: under setting [13], 102 % of control; (dose: 150.0 mg/kg/injection, schedule: Q01DX001 (ip), vehicle: saline) 112 % of control; (dose: 300.0 mg/kg/injection, schedule: Q01DX001 (ip), vehicle: saline) 100 % of control.

Consider `CC(C)N1CCc2cc3c(cc2C1)OCO3`, for which the T/C under setting [13] is 100 % of control and the T/C under setting [12] is 100 % of control.

Consider `CSc1ncnc2c1cnn2C1OC(CO)C(O)C1O` (configuration not stated), for which the T/C was 93 % of control (dose: 12.5 mg/kg/injection, schedule: Q01DX005 (ip), vehicle: other); 100 % of control (dose: 25.0 mg/kg/injection, schedule: Q01DX005 (ip), vehicle: other); 105 % of control (dose: 50.0 mg/kg/injection, schedule: Q01DX005 (ip), vehicle: other); 122 % of control and 100 % of control (dose: 100.0 mg/kg/injection, schedule: Q01DX005 (ip), vehicle: other); 119 % of control and 112 % of control (dose: 200.0 mg/kg/injection, schedule: Q01DX005 (ip), vehicle: other).

For the molecule `CCN(CC)C(=O)c1ccc[n+](Cc2ccc(Cl)c(Cl)c2)c1`, the T/C under setting [9] was 103 % of control.

On to `O=P(OCc1ccccc1)(N(CCCl)CCCl)N1CCCCC1` (configuration not stated), for which the T/C runs as follows: (dose: 62.5 mg/kg/injection, schedule: Q01DX010 (ip), vehicle: saline) 98 % of control; (dose: 125.0 mg/kg/injection, schedule: Q01DX010 (ip), vehicle: saline) 101 % of control; (dose: 250.0 mg/kg/injection, schedule: Q01DX010 (ip), vehicle: saline) 90 % of control.

Regarding `CCCCNC(C)(C)C(SSSC(c1ccc(Cl)cc1)C(C)(C)NCCCC)c1ccc(Cl)cc1` (configuration not stated), the T/C (dose: 12.0 mg/kg/injection, schedule: Q04DX003 (ip), vehicle: other) is 97 % of control; the T/C (dose: 25.0 mg/kg/injection, schedule: Q04DX003 (ip), vehicle: other) is 105 % of control; the T/C (dose: 50.0 mg/kg/injection, schedule: Q04DX003 (ip), vehicle: other) is 96 % of control.

In the case of `CC(C)CCCC(C)C1CCC2C3CCC4CC(=O)C=CC4(C)C3CCC12C` (configuration not stated), the T/C is, setting by setting: (dose: 75.0 mg/kg/injection, schedule: Q04DX003 (sc), vehicle: steriod suspending solution) 100 % of control; (dose: 150.0 mg/kg/injection, schedule: Q04DX003 (sc), vehicle: steriod suspending solution) 101 % of control; (dose: 300.0 mg/kg/injection, schedule: Q04DX003 (sc), vehicle: steriod suspending solution) 101 % of control.

For the molecule `CN(C)CC1CCCC12OCCO2` (configuration not stated), the T/C (dose: 75.0 mg/kg/injection, schedule: Q01DX001 (ip), vehicle: other) was 100 % of control; the T/C (dose: 150.0 mg/kg/injection, schedule: Q01DX001 (ip), vehicle: other) was 96 % of control; the T/C (dose: 300.0 mg/kg/injection, schedule: Q01DX001 (ip), vehicle: other) was 106 % of control.

As to `[Cl][Pt+2][Cl].[NH-]N1CCN([NH-])CC1`, the T/C reads like this: (dose: 12.5 mg/kg/injection, schedule: Q04DX003 (ip), vehicle: saline with Tween-80) 105 % of control; (dose: 25.0 mg/kg/injection, schedule: Q04DX003 (ip), vehicle: saline with Tween-80) 90 % of control; (dose: 50.0 mg/kg/injection, schedule: Q04DX003 (ip), vehicle: saline with Tween-80) 98 % of control; under setting [6], 94 % of control; under setting [7], 102 % of control.

`CCOP(=O)(OCC)C(C#N)Cc1ccccc1OC` (configuration not stated): the T/C under setting [9] is 98 % of control and the T/C under setting [10] was 101 % of control.

On to `CC1=CC(C)N(C(=O)c2ccc(Cl)cc2)CCN1C(=O)c1ccc(Cl)cc1` (configuration not stated), for which the T/C was 98 % of control under setting [6], 102 % of control under setting [7] and 102 % of control under setting [8].

For the molecule `CCN(CC)[P+](c1ccccc1O)(N(CC)CC)N(CC)CC`, the T/C (dose: 0.39 mg/kg/injection, schedule: Q01DX009 (ip), vehicle: saline) was 103 % of control; the T/C (dose: 0.78 mg/kg/injection, schedule: Q01DX009 (ip), vehicle: saline) was 104 % of control; the T/C (dose: 1.56 mg/kg/injection, schedule: Q01DX009 (ip), vehicle: saline) was 109 % of control; the T/C (dose: 6.25 mg/kg/injection, schedule: Q01DX009 (ip), vehicle: saline) was 92 % of control.
